For test [1], the system named is metastatic SUM-52 PE breast cancer cells. The test can be described thus: SU-ECM invasion assay, SUM-52 PE cells. To be noted: PHSRN sequence of fibronectin alone; Example 4. It counts as cell-based, human. On the procedure: Adult Strongylocentrotus purpuratus sea urchins were obtained from Pacific BioMarine, and their embryos were cultured to the early pluteus stage in artificial sea water at 15°C. SU-ECM were prepared from them by treatment with nonionic detergent and sterilized by dilution in the appropriate media.
Cells were harvested by rinsing in Hanks balanced salt solution, followed by brief treatment with 0.25% trypsin, 0.02% EDTA, and pelleting and resuspension in the appropriate medium with or without 5% FCS at a density of about 50,000 cells per ml. When appropriate, purified bovine plasma fibronectin (Sigma, St. Louis, Mo), purified 120 kDa chymotryptic fragment (Gibco BRL), PHSRN or PHSCN peptides (synthesized at the Biomedical Research Core Facilities of the University of Michigan), or GRGDSP or GRGESP peptides (Gibco BRL) were added to the resuspended cells prior to placement of the cells on SU-ECM. In each well of a plate used for an invasion assay, SU-ECM were placed in 0.5 ml of the appropriate medium, and 0.5ml of the resuspended cells dropped on their exterior surfaces. Invasion assays were incubated 1 to 16 hours prior to scoring. If some circumstances, invasion assays were fixed in phosphate-buffered saline (PBS) with 2% formaldehyde for 5 minutes at room temperature, then rinsed into PBS.
Invasion assays were coded and scored blindly by microscopic examination under phase contrast at 200- and 400-fold magnification. Each cell contacting an SU-ECM was scored for its position relative to the exterior or interior surfaces. A cell was judged to have invaded if it was located on an interior surface below the focal plane passing through the upper surface of the SU-ECM, but above the focal plane passing through its lower surface. The minimum viability of the cells in each assay was always ascertained at the time of assay by determining the fraction of spread, adherent cells on the bottom of each well scored.
An invasion frequency is defined as the fraction of cells in contact with basement membranes which were located in their interiors at the time of assay. Thus, an invasion frequency of 1 denotes invasion by 100% of the cells in contact with basement membranes. Invasion frequencies were determined multiple times for each cell type assayed. For each type of cell assayed the mean and standard deviation of the invasion frequencies were calculated.
The method of Example 4 is employed, with the addition of varying concentrations of the PHSCN peptide.
Thus, the procedure in Example 4 provides a method for determining the inhibitory potential of the PHSCN peptide by comparing the number of cell invasions in the presence of the PHSCN peptide, with the number of cell invasions in the absence of the PHSCN peptide.

Test [2] concerns normal, neonatal fibroblasts. The test can be described thus: Invasion of fibronectin-depleted Matrigel by fibroblasts. Format: cell-based. To be noted: gelatin plus antibody panned Matrigel; Figure 2. On the procedure:
Anti-fibronectin antibody-coated wells: Wells of a 24-well plate were coated with an anti-fibronectin antibody. A mouse monoclonal antibody to human fibronectin was obtained from Oncogene Science (Catalog #CP13). Each well was incubated with 1 ml of antibody at a concentration of […] for 2 hours at room temperature. Each well was then incubated with a solution of 3% BSA in PBS for 2 hours at room temperature. Following the two incubation periods, the wells were thoroughly washed with PBS and stored at -20 °C until use.
Depleting Matrigel of Fibronectin: Matrigel was panned over eight gelatin-coated wells (as described above in Example 2) to remove most of the fibronectin and its fragments. Thereafter, the Matrigel was placed in the antibody-coated wells to remove any remaining fragments of fibronectin which contain the cell-binding domain but not the gelatin-binding domain. The Matrigel was incubated in an ice bucket on an orbital shaker at 4 °C for 2 hours. Once the Matrigel was depleted, it was collected in Eppendorf tubes. The fibronectin-depleted Matrigel was plated on a 48-well plate (150 µl/well), sterilized under a UV light for 10 minutes and incubated at 37 °C overnight. The Matrigel formed a gel and the following day, cells were added to the wells. […]

Test [3] concerns Normal neonatal keratinocytes. In words: SU-ECM invasion assay, keratinocytes. It counts as cell-based. Conditions: in the presence of serum, Figure 11. The text has this: In one example cells for the invasion assay are harvested by rinsing in Hanks' balanced salt solution, followed by brief treatment with 0.25% trypsin, 0.02% EDTA, and pelleting and resuspension in the appropriate medium with or without 5% FCS at a density of about 50,000 cells per ml. When appropriate, purified bovine plasma fibronectin (from Sigma, St. Louis, Mo), purified 120 kDa chymotryptic fragment (Gibco BRL) or PHSRN peptides (synthesized at the Biomedical Research Core Facilities of the University of Michigan) are added to the resuspended cells prior to placement of the cells on SU-ECM. […]
Invasion assays are coded and scored blindly by microscopic examination under phase contrast at 200- and 400-fold magnification. Each cell contacting an SU-ECM is scored for its position relative to the exterior or interior surfaces. […] The minimum viability of the cells in each assay is always ascertained at the time of assay by determining the fraction of spread, adherent cells on the bottom of each well scored.
An invasion frequency is defined as the fraction of cells in contact with basement membranes which are located in their interiors at the time of assay. […] Invasion frequencies are determined multiple times for each cell type assayed. For each type of cell assayed the mean and standard deviation of the invasion frequencies were calculated. […]

No end group written: not given here.

As for PHSRN [PHSRN], the “induction of SUM-52 cell invasion of SU-ECM” value in test [1] is on record as “induced to invade”. In test [2], the “induction of fibroblast invasiveness on fibronectin-depleted Matrigel” value is reported as “could be induced”. In addition, in test [3], the “maximal invasion percentages for keratinocytes” value was “about 20%”.

Source of the values: EP1388013B1, “COMPOSITIONS AND METHODS FOR THE USE OF FIBRONECTIN FRAGMENTS IN THE DIAGNOSIS OF CANCER” (THE REGENTS OF THE UNIVERSITY OF MICHIGAN, priority 2001, dated 2002).
